Assays:
[1] = tested on: wild-type (WT) K562 cells; assay: Drug tolerance test: surviving cells counted after 17 days of anticancer drug treatment; type: cell-based; conditions: 1 μM drug
[2] = tested on: FLT3-transformed K562 cells; assay: as above; type: cell-based; conditions: K562 FLT3, 1 μM drug
Procedure: Drug tolerance was tested using FLT3-transformed K562 cells (ATCC, CCL-243) mimicking the blast crisis of chronic myelogenous leukemia.
After administering three anticancer drugs against chronic myelogenous leukemia for 17 days to the FLT3-transformed K562 cells, the surviving cells were counted (Table 1).

[3] = tested on: FLT3-transformed K562 cells; assay: MTT assay, inhibitors against FLT3 subfactors co-treated with imatinib; type: cell-based; conditions: for Apoptotic effect and drug tolerance (MTT) when co-treated with imatinib: imatinib 1 μM plus inhibitor at three concentrations, 4 days, FIGS. 9a-9e; for Apoptotic effect and drug tolerance when JAK, STAT3, TAZ, TEAD and CD36 are inhibited: summary statement in the description, treatment conditions not given
Procedure: AZD1480 (Selleckem, Cat. No. S2162) was used as a JAK inhibitor, C188-9 (Selleckem, Cat. No. S8605) was used as a STAT3 inhibitor, verteporfin (Selleckem, Cat. No. S1786) was used as a TAZ inhibitor, flufenamic acid (Selleckem, Cat. No. S4268) was used as a TEAD inhibitor, and sulfo-N-succinimidyl oleate (Cayman, Cat. No. 11211) was used as a CD36 inhibitor. […] After treating with each inhibitor for 4 days, MTT assay was conducted in the same manner as in Test Example 5 and absorbance was measured at 540 nm using a multiplate reader (FIG. 9).

[4] = tested on: FLT3-transformed K562 cells having resistance to three drugs (imatinib, dasatinib and nilotinib); conditions: single agent; FIGS. 4-7
[5] = tested on: FLT3-transformed K562 cells having resistance to imatinib; assay: MTT assay, FLT3 inhibitors co-administered with imatinib; type: cell-based; conditions: 1 μM imatinib alone, 5 days
Procedure: The cells were cultured using DMEM (Hyclone) containing 10% FBS (Gibco). […] The concentration of the FLT3 inhibitor was as follows. […] 5 days later, after adding 100 μL of an MTT labeling reagent included in a cell proliferation kit (Roche) to each well for 2 hours and then treating with […] of a solubilization solution for 24 hours, absorbance was measured at a wavelength of 540 nm using a multiplate reader (FIGS. 8a-8c).

With `Cc1nc(Nc2ncc(C(=O)Nc3c(C)cccc3Cl)s2)cc(N2CCN(CCO)CC2)n1` [dasatinib] the Cell number ([1]; Day 0) was 1 × 10^5, the Cell number ([1]; Day 5) was 0.8075 × 10^5 and the Cell number ([1]; Day 9) was 0.35 × 10^5. For the same compound, the Cell number ([1]; Day 11) was 0.47 × 10^5, the Cell number ([1]; Day 13) was 0 × 10^5 and the Cell number ([1]; Day 15) was 0 × 10^5. The Cell number ([1]; Day 17) was 0 × 10^5, the Cell number ([2]; Day 5) was 1.57 × 10^5 and the Cell number ([2]; Day 9) was 2.87 × 10^5. For the same compound, the Cell number ([2]; Day 11) was 2.23 × 10^5, the Cell number ([2]; Day 13) was 2.26 × 10^5 and the Cell number ([2]; Day 15) was 1.76 × 10^5. The Cell number ([2]; Day 17) was 9.33 × 10^5.

With verteporfin the “Apoptotic effect and drug tolerance (MTT) when co-treated with imatinib” value [3] was “remarkably enhanced apoptotic effect and inhibited drug tolerance” and the “Apoptotic effect and drug tolerance when JAK, STAT3, TAZ, TEAD and CD36 are inhibited” value [3] was “apoptotic effect is enhanced remarkably and drug tolerance is inhibited”.

`Cc1cc(Nc2nc(N[C@@H](C)c3ncc(F)cn3)ncc2Cl)n[nH]1` [AZD1480] was tested, and the “Apoptotic effect and drug tolerance (MTT) when co-treated with imatinib” value [3] was “remarkably enhanced apoptotic effect and inhibited drug tolerance” and the “Apoptotic effect and drug tolerance when JAK, STAT3, TAZ, TEAD and CD36 are inhibited” value [3] was “apoptotic effect is enhanced remarkably and drug tolerance is inhibited”.

In the case of `COc1ccc(S(=O)(=O)Nc2cc(-c3c(O)ccc4ccccc34)c(O)c3ccccc23)cc1` [C188-9], the “Apoptotic effect and drug tolerance (MTT) when co-treated with imatinib” value [3] is reported as “remarkably enhanced apoptotic effect and inhibited drug tolerance” and the “Apoptotic effect and drug tolerance when JAK, STAT3, TAZ, TEAD and CD36 are inhibited” value [3] is reported as “apoptotic effect is enhanced remarkably and drug tolerance is inhibited”.

With `Cc1cn(-c2cc(NC(=O)c3ccc(C)c(Nc4nccc(-c5cccnc5)n4)c3)cc(C(F)(F)F)c2)cn1` [nilotinib] the Cell number ([1]; Day 0) was 1 × 10^5, the Cell number ([1]; Day 5) was 0.9675 × 10^5 and the Cell number ([1]; Day 9) was 0.23 × 10^5. For the same compound, the Cell number ([1]; Day 11) was 0.76 × 10^5, the Cell number ([1]; Day 13) was 0.09 × 10^5 and the Cell number ([1]; Day 15) was 0 × 10^5. The Cell number ([1]; Day 17) was 0 × 10^5, the Cell number ([2]; Day 0) was 1 × 10^5 and the Cell number ([2]; Day 5) was 2.0975 × 10^5. The Cell number ([2]; Day 9) was 1.38 × 10^5, the Cell number ([2]; Day 11) was 2.64 × 10^5 and the Cell number ([2]; Day 13) was 2.84 × 10^5. The Cell number ([2]; Day 15) was 4.52 × 10^5, the Cell number ([2]; Day 17) was 17.1 × 10^5 and the “Killing of resistant cells, treated only with the one agent” value [4] was “hardly killed”.

`O=C(O)c1ccccc1Nc1cccc(C(F)(F)F)c1` [flufenamic acid] was tested, and the “Apoptotic effect and drug tolerance (MTT) when co-treated with imatinib” value [3] was “remarkably enhanced apoptotic effect and inhibited drug tolerance” and the “Apoptotic effect and drug tolerance when JAK, STAT3, TAZ, TEAD and CD36 are inhibited” value [3] was “apoptotic effect is enhanced remarkably and drug tolerance is inhibited”.

With `Cc1ccc(NC(=O)c2ccc(CN3CCN(C)CC3)cc2)cc1Nc1nccc(-c2cccnc2)n1` [imatinib] the “Killing of FLT3-overexpressed K562 cells (MTT), imatinib only” value [5] was “could not be killed”, the Cell number ([1]; Day 0) was 1 × 10^5 and the Cell number ([1]; Day 5) was 0.485 × 10^5. The Cell number ([1]; Day 9) was 0.058 × 10^5, the Cell number ([1]; Day 11) was 0.52 × 10^5 and the Cell number ([1]; Day 13) was 0.175 × 10^5. The Cell number ([1]; Day 15) was 0 × 10^5, the Cell number ([1]; Day 17) was 0 × 10^5 and the Cell number ([2]; Day 0) was 1 × 10^5. The Cell number ([2]; Day 5) was 1.013 × 10^5, the Cell number ([2]; Day 9) was 1.905 × 10^5 and the Cell number ([2]; Day 11) was 1.82 × 10^5. The Cell number ([2]; Day 15) was 3.17 × 10^5, the Cell number ([2]; Day 17) was 14.3 × 10^5 and the “Killing of resistant cells, treated only with the one agent” value [4] was “hardly killed”.

In the case of `CCCCCCCC/C=C\CCCCCCCC(=O)ON1C(=O)CC(S(=O)(=O)O)C1=O` (centres unmarked) [sulfo-N-succinimidyl oleate], the “Apoptotic effect and drug tolerance (MTT) when co-treated with imatinib” value [3] is reported as “remarkably enhanced apoptotic effect and inhibited drug tolerance” and the “Apoptotic effect and drug tolerance when JAK, STAT3, TAZ, TEAD and CD36 are inhibited” value [3] is reported as “apoptotic effect is enhanced remarkably and drug tolerance is inhibited”.
